# Laboratory results reported in US8022205B2, “Pyrimidine derivatives as PI3K inhibitor and use thereof” (Chugai Seiyaku Kabushiki Kaisha, priority 2006, dated 2011).
# Where a name gives a salt, the structure may show the parent alone.
# How the values were obtained:
# [1] = tested on: human colon cancer cell line HCT116; assay: Cell proliferation inhibitory activity (Cell Counting Kit-8), colon cancer HCT116; type: cell-based; settings: HCT-116, 96 h, HCT116, 4 days
# Method: (§1) The cell proliferation inhibitory activity was measured for compounds of the present invention represented by formula (I). Cancer cell proliferation inhibitory activity was measured using the Cell Counting Kit-8 (Dojindo). 2000 cells each of human colon cancer cell line HCT116 purchased from the American Type Culture Collection (Virginia, USA) were seeded into each well of a 96-well culture plate followed by the addition of a predetermined concentration of the compounds and cultivating in a CO2environment for 4 days at 37° C. On the fourth day of cultivating, the Cell Counting Kit-8 solution was added and absorbance (measuring wavelength: 450 nm, reference wavelength: 615 nm) was measured in accordance with the protocol provided with the kit.
# [2] = molecular target: human PI3K(p110α/p85α) (Homo sapiens, UniProt P42336); assay: Measurement of PI3K inhibitory activity (AlphaScreen GST Detection Kit); type: biochemical; settings: 10 μM ATP, 4 μM PI(4,5)P2, read-out: Enzyme inhibitory activity (IC50, μM) PI3K α
# Chain of human PI3K(p110α/p85α) (P42336 whole entry): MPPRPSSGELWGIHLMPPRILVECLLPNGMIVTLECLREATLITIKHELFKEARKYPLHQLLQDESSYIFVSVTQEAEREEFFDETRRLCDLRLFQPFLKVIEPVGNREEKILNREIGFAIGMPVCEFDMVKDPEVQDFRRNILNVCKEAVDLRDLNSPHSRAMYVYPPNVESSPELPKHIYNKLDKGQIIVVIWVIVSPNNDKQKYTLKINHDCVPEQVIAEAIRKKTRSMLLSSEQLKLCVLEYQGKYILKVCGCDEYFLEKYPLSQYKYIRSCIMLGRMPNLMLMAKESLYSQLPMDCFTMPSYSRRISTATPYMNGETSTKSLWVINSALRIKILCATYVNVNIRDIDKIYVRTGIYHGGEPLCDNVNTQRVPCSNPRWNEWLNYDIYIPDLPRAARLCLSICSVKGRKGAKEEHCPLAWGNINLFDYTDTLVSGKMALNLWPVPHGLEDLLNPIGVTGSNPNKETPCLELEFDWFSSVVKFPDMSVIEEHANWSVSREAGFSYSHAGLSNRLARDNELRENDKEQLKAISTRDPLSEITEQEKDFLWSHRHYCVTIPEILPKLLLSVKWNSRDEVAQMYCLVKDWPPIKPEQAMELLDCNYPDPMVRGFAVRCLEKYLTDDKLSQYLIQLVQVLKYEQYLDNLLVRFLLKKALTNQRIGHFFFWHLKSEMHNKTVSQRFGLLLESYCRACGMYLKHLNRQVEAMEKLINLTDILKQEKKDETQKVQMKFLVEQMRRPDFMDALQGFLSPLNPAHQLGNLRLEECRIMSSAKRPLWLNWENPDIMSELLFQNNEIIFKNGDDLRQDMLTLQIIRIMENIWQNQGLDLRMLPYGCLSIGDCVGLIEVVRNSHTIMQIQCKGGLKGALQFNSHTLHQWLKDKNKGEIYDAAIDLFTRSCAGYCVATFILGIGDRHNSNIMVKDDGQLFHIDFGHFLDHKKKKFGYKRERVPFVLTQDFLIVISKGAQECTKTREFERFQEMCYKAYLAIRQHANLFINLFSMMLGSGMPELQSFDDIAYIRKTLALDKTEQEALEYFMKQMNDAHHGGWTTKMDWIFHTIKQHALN
# Chain of human PI3K(p110α/p85α) (P27986 whole entry partner): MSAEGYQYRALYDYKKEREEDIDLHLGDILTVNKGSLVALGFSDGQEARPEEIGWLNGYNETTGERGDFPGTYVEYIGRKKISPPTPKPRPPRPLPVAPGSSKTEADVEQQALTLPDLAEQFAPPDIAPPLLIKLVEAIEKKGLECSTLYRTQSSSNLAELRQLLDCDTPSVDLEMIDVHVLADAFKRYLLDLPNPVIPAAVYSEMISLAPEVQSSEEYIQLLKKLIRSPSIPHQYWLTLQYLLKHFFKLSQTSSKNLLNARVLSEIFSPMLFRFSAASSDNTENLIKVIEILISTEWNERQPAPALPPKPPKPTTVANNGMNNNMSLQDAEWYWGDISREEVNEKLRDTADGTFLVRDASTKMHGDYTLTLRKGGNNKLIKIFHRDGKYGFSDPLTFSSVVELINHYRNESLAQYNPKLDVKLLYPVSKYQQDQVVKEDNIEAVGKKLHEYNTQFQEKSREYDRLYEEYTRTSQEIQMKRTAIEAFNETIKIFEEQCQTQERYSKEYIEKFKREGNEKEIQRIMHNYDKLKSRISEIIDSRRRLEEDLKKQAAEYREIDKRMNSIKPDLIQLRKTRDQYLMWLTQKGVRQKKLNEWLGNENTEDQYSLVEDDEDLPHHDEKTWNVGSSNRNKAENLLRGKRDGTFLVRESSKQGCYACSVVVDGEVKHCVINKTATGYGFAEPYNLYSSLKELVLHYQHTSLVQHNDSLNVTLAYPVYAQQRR
# Method: The inhibitory activity of compounds of the present invention represented by formula (I) were measured with human PI3K(p110α/p85α) prepared in a baculovirus expression system using the AlphaScreen GST Detection Kit (Perkin Elmer, Inc.). A predetermined concentration of the compound dissolved in dimethylsulfoxide (DMSO) and PI3K were mixed in a 384-well assay plate and after allowing to stand for 20 minutes at room temperature, 4 μM PI(4,5)P2 (Echelon Corporation) and 10 μM ATP (5 mM Hepes, pH 7.5, 2.5 mM MgCl2) were added to initiate the reaction. After reacting for 15 minutes at 37° C., GST-GRP1 expressed and purified from Escherichia coli, Anti-GST Acceptor Beads (Perkin Elmer, Inc.), Streptavidin Donor Beads (Perkin Elmer, Inc.) and biotin-PI(3,4,5) P3 (Echelon Corporation) (10 mM Tris-HCl pH 7.4, 150 mM NaCl, 7.5 mM EDTA, 1 mM DTT, 0.1% Tween 20) were added, and after allowing to stand for 1 hour at room temperature, light at 520 to 620 nm emitted as a result of exciting with light at 680 nm was measured with the Envision measuring instrument (Perkin Elmer, Inc.).
# Test Example 1 described above can be performed according to “Analytical Biochemistry, 2003, 313, 234-245; Alexander Gray et al”.
# [3] = tested on: human prostate cancer cell line PC3; assay: Cell proliferation inhibitory activity (Cell Counting Kit-8), prostate cancer PC3; type: cell-based; settings: 96 h, PC3, 4 days
# Method: as §1
# (§2) Cancer cell proliferation inhibitory activity was also measured for human lung cancer cell line NCI-H460 and human prostate cancer cell line PC3 purchased from the American Type Culture Collection. 1000 and 3000 cells of NCI-H460 and PC3, respectively, were seeded into each well of a 96-well culture plate followed by testing in the same manner as the human colon cancer cell line and calculating the percentage of cell proliferation inhibition at 2.5 μM.
# [4] = tested on: human lung cancer cell line NCI-H460; assay: Cell proliferation inhibitory activity (Cell Counting Kit-8), lung cancer NCI-H460; type: cell-based; settings: 96 h, NCI-H460, 4 days, read-out: Cell proliferation inhibitory activity (% Inhibition at 2.5 μM) Non-small cell lung cancer (NCI-H460)
# Method: as §1, §2
IC50 [2] [µM],Compound,inhibition at 2.5 µM [1] [%],inhibition at 2.5 µM [3] [%],inhibition at 2.5 µM [4] [%]
0.01,"Nc1ncc(-c2nc(N3CCOCC3)nc3c2CCN3c2ccc(C(=O)N3CCN(c4cccnc4)CC3)cc2F)cn1 [Example D-21, {4-[4-(2-Amino-pyrimidin-5-yl)-2-morpholin-4-yl-5,6-dihydro-pyrrolo[2,3-d]pyrimidin-7-yl]-3-fluoro-phenyl}-(4-pyridin-3-yl-piperazin-1-yl)-methanone]",77,100,79
0.007,"Nc1ncc(-c2nc(N3CCOCC3)nc3c2CCN3c2ccc(C(=O)NCc3ccncc3)cc2)cn1 [Example D-264, 4-[4-(2-Amino-pyrimidin-5-yl)-2-morpholin-4-yl-5,6-dihydro-pyrrolo[2,3-d]pyrimidin-7-yl]-N-pyridin-4-ylmethyl-benzamide]",63,72,82
0.007,"CN(Cc1cccnc1)C(=O)c1ccc(N2CCc3c(-c4cnc(N)nc4)nc(N4CCOCC4)nc32)c(F)c1 [Example D-318, 4-[4-(2-Amino-pyrimidin-5-yl)-2-morpholin-4-yl-5,6-dihydro-pyrrolo[2,3-d]pyrimidin-7-yl]-3-fluoro-N-methyl-N-pyridin-3-ylmethyl-benzamide]",96,94,89
0.22,"Cc1ccc(C(=O)N2CCOCC2)cc1N1CCc2c(-c3cnc(N)nc3)nc(N3CCOCC3)nc21 [Example D-25, {3-[4-(2-Amino-pyrimidin-5-yl)-2-morpholin-4-yl-5,6-dihydro-pyrrolo[2,3-d]pyrimidin-7-yl]-4-methyl-phenyl}-morpholin-4-yl-methanone]",61,55,57
0.05,"Oc1cccc(-c2nc(N3CCOCC3)nc3c2CCN3c2ccnc(N3CCOCC3)c2)c1 [Example A-44, 3-[2-Morpholin-4-yl-7-(2-morpholin-4-yl-pyridin-4-yl)-6,7-dihydro-5H-pyrrolo[2,3-d]pyrimidin-4-yl]-phenol]",69,79,82
0.07,"CCCN1CCN(Cc2ccc(N3CCc4c(-c5cnc(N)nc5)nc(N5CCOCC5)nc43)cc2)CC1 [Example D-327, 5-{2-morpholin-4-yl-7-[4-(4-propyl-piperazin-1-ylmethyl)-phenyl]-6,7-dihydro-5H-pyrrolo[2,3-d]pyrimidin-4-yl}-pyrimidin-2-ylamine]",78,79,85
0.014,"CN1CCN(C(=O)c2ccc(N3CCc4c(-c5cnc(N)nc5)nc(N5CCOCC5)nc43)cc2)CC1 [Example D-42, {4-[4-(2-Amino-pyrimidin-5-yl)-2-morpholin-4-yl-5,6-dihydro-pyrrolo[2,3-d]pyrimidin-7-yl]-phenyl}-(4-methyl-piperazin-1-yl)-methanone]",91,88,94
0.006,"Nc1ncc(-c2nc(N3CCOCC3)nc3c2CCN3c2ccc(C(=O)N3CCN(c4ccncc4)CC3)cc2)cn1 [Example D-265, {4-[4-(2-Amino-pyrimidin-5-yl)-2-morpholin-4-yl-5,6-dihydro-pyrrolo[2,3-d]pyrimidin-7-yl]-phenyl}-(4-pyridin-4-yl-piperazin-1-yl)-methanone]",98,96,71
0.2,Nc1ncc(-c2nc(N3CCOCC3)nc3c2CCN3c2ccc(CNCc3cccnc3)cc2)cn1 [Example D-334],93,90,94
0.009,"CN(CCN1CCOCC1)C(=O)c1ccc(N2CCc3c(-c4cnc(N)nc4)nc(N4CCOCC4)nc32)cc1 [Example D-139, 4-[4-(2-Amino-pyrimidin-5-yl)-2-morpholin-4-yl-5,6-dihydro-pyrrolo[2,3-d]pyrimidin-7-yl]-N-methyl-N-(2-morpholin-4-yl-ethyl)-benzamide]",90,89,72
0.05,"CNC(=S)N1CCc2c(-c3cccc(O)c3)nc(N3CCOCC3)nc21 [Example C-55, 4-(3-Hydroxy-phenyl)-2-morpholin-4-yl-5,6-dihydro-pyrrolo[2,3-d]pyrimidine-7-carbothioic acid methylamide trifluoroacetic acid salt]",72,87,89
0.011,"CCN1CCN(c2cc(N3CCc4c(-c5cnc(N)nc5)nc(N5CCOCC5)nc43)ccn2)CC1 [Example H-34, 5-{7-[2-(4-Ethyl-piperazin-1-yl)-pyridin-4-yl]-2-morpholin-4-yl-6,7-dihydro-5H-pyrrolo[2,3-d]pyrimidin-4-yl}-pyrimidin-2-ylamine]",81,91,89
0.02,"CCNC(=O)N1CCc2c(-c3cnc(N)nc3)nc(N3CCOCC3)nc21 [Example D-03, 4-(2-Amino-pyrimidin-5-yl)-2-morpholin-4-yl-5,6-dihydro-pyrrolo[2,3-d]pyrimidine-7-carboxylic acid ethylamide]",92,88,92
0.11,"CN1CCN(Cc2ccc(N3CCc4c(-c5cnc(N)nc5)nc(N5CCOCC5)nc43)cc2F)CC1 [Example D-325, 5-{7-[3-fluoro-4-(4-methyl-piperazin-1-ylmethyl)-phenyl]-2-morpholin-4-yl-6,7-dihydro-5H-pyrrolo[2,3-d]pyrimidin-4-yl}-pyrimidin-2-ylamine]",78,73,81
0.006,"Nc1ncc(-c2nc(N3CCOCC3)nc3c2CCN3C(=O)Nc2ccc(C(=O)N3CCOCC3)cc2)cn1 [Example D-104, 4-(2-Amino-pyrimidin-5-yl)-2-morpholin-4-yl-5,6-dihydro-pyrrolo[2,3-d]pyrimidine-7-carboxylic acid [4-(morpholine-4-carbonyl)-phenyl]-amide]",37,34,67
0.009,"CCN1CCN(C(=O)c2cccc(NC(=O)N3CCc4c(-c5cnc(N)nc5)nc(N5CCOCC5)nc43)c2)CC1 [Example D-101, 4-(2-Amino-pyrimidin-5-yl)-2-morpholin-4-yl-5,6-dihydro-pyrrolo[2,3-d]pyrimidine-7-carboxylic acid [3-(4-ethyl-piperazine-1-carbonyl)-phenyl]-amide]",92,89,67
0.092,"Cc1cc(C(=O)N2CCOCC2)ccc1N1CCc2c(-c3cnc(N)nc3)nc(N3CCOCC3)nc21 [Example D-137, {4-[4-(2-Amino-pyrimidin-5-yl)-2-morpholin-4-yl-5,6-dihydro-pyrrolo[2,3-d]pyrimidin-7-yl]-3-methyl-phenyl}-morpholin-4-yl-methanone]",60,71,52
0.26,"COc1ncc(-c2nc(N3CCOCC3)nc3c2CCN3c2cccnc2)c(OC)n1 [Example B-09, 4-(2,4-Dimethoxy-pyrimidin-5-yl)-2-morpholin-4-yl-7-pyridin-3-yl-6,7-dihydro-5H-pyrrolo[2,3-d]pyrimidine]",45,56,67
0.008,"Nc1ncc(-c2nc(N3CCOCC3)nc3c2CCN3c2ccc(C(=O)N3CCN(c4ccncc4)CC3)cc2F)cn1 [Example D-286, {4-[4-(2-Amino-pyrimidin-5-yl)-2-morpholin-4-yl-5,6-dihydro-pyrrolo[2,3-d]pyrimidin-7-yl]-3-fluoro-phenyl}-(4-pyridin-4-yl-piperazin-1-yl)-methanone]",94,89,97
